# Laboratory results reported in PubChem BioAssay AID2060882 (Molecular Pharmacology Branch, DTP, NCI, 2025).
# Tested on: 898857-211-R-J1-PDC complex spheroids, growth % test/control
# Assay: Anticancer human tumor 898857-211-R-J1-PDC patient-derived melanoma cell line growth inhibition [RAS]
# Details: for IC50: curve of first compound; for viability, T/C: stronger effect = lower value
# Procedure, shortened: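 Agents were tested in combination matrices in half-log decrements from a top concentration at or near clinical Cmax (10 microM if undetermined). Targets were multi-cell spheroids of tumour lines plus HUVEC and MSC stromal cells.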
# 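Note: spheroids exposed to compound for seven days before readout.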
# 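Throughout, for viability, T/C: 100% = DMSO vehicle control wells.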
smiles,measurement,setting,value
Nc1ccn(C2OC(CO)C(O)C2(F)F)c(=O)n1 (centres undefined) + C#Cc1c(F)ccc2cc(O)cc(-c3ncc4c(N5CC6CCC(C5)N6)nc(OCC56CCCN5CC(F)C6)nc4c3F)c12,IC50,second compound 0.0316 µM,7.32 nM
same,IC50,second compound 0.1 µM,7.52 nM
same,IC50,second compound 0.316 µM,7.89 nM
same,IC50,second compound 1 µM,7.11 nM
same,IC50,second compound 3.16 µM,7.22 nM
same,IC50,second compound 10 µM,< 3.16 nM
same,"viability, T/C","second compound 0.0316 µM, first compound 0.00316 µM",105%
same,"viability, T/C","second compound 0.0316 µM, first compound 0.01 µM",29.7%
same,"viability, T/C","second compound 0.0316 µM, first compound 0.0316 µM",6.72%
same,"viability, T/C","second compound 0.0316 µM, first compound 0.1 µM",5%
same,"viability, T/C","second compound 0.0316 µM, first compound 0.316 µM",5.45%
same,"viability, T/C","second compound 0.0316 µM, first compound 1 µM",5.38%
same,"viability, T/C","second compound 0.1 µM, first compound 0.00316 µM",92.7%
same,"viability, T/C","second compound 0.1 µM, first compound 0.01 µM",36%
same,"viability, T/C","second compound 0.1 µM, first compound 0.0316 µM",7.32%
same,"viability, T/C","second compound 0.1 µM, first compound 0.1 µM",5.55%
same,"viability, T/C","second compound 0.1 µM, first compound 0.316 µM",5.77%
same,"viability, T/C","second compound 0.1 µM, first compound 1 µM",5.83%
same,"viability, T/C","second compound 0.316 µM, first compound 0.00316 µM",97.4%
same,"viability, T/C","second compound 0.316 µM, first compound 0.01 µM",37.7%
same,"viability, T/C","second compound 0.316 µM, first compound 0.0316 µM",7.43%
same,"viability, T/C","second compound 0.316 µM, first compound 0.1 µM",4.86%
same,"viability, T/C","second compound 0.316 µM, first compound 0.316 µM",5.48%
same,"viability, T/C","second compound 0.316 µM, first compound 1 µM",5.75%
same,"viability, T/C","second compound 1 µM, first compound 0.00316 µM",91.7%
same,"viability, T/C","second compound 1 µM, first compound 0.01 µM",32.4%
same,"viability, T/C","second compound 1 µM, first compound 0.0316 µM",8.35%
same,"viability, T/C","second compound 1 µM, first compound 0.1 µM",5.57%
same,"viability, T/C","second compound 1 µM, first compound 0.316 µM",4.9%
same,"viability, T/C","second compound 1 µM, first compound 1 µM",5.48%
same,"viability, T/C","second compound 3.16 µM, first compound 0.00316 µM",99%
same,"viability, T/C","second compound 3.16 µM, first compound 0.01 µM",30.7%
same,"viability, T/C","second compound 3.16 µM, first compound 0.0316 µM",7.65%
same,"viability, T/C","second compound 3.16 µM, first compound 0.1 µM",6.3%
same,"viability, T/C","second compound 3.16 µM, first compound 0.316 µM",5.81%
same,"viability, T/C","second compound 3.16 µM, first compound 1 µM",5.63%
same,"viability, T/C","second compound 10 µM, first compound 0.00316 µM",46.4%
same,"viability, T/C","second compound 10 µM, first compound 0.01 µM",25.8%
same,"viability, T/C","second compound 10 µM, first compound 0.0316 µM",7.48%
same,"viability, T/C","second compound 10 µM, first compound 0.1 µM",6.16%
same,"viability, T/C","second compound 10 µM, first compound 0.316 µM",6.42%
same,"viability, T/C","second compound 10 µM, first compound 1 µM",5.33%
Cc1nc(N2CCC3(CC2)COC(C)C3N)c(CO)nc1Sc1ccnc(N)c1Cl (centres undefined) + CCn1c(-c2cc(N3CCN(C)CC3)cnc2C(C)OC)c2c3cc(ccc31)-c1csc(n1)CC(NC(=O)C1CC1C)C(=O)N1CCCC(N1)C(=O)OCC(C)(C)C2,IC50,second compound 0.000949 µM,> 10000 nM
same,IC50,second compound 0.003 µM,> 10000 nM
same,IC50,second compound 0.00949 µM,> 10000 nM
same,IC50,second compound 0.03 µM,> 10000 nM
same,IC50,second compound 0.0949 µM,> 10000 nM
same,IC50,second compound 0.3 µM,> 10000 nM
same,"viability, T/C","second compound 0.000949 µM, first compound 0.0316 µM",99.6%
same,"viability, T/C","second compound 0.000949 µM, first compound 0.1 µM",98%
same,"viability, T/C","second compound 0.000949 µM, first compound 0.316 µM",93.6%
same,"viability, T/C","second compound 0.000949 µM, first compound 1 µM",94.2%
same,"viability, T/C","second compound 0.000949 µM, first compound 3.16 µM",94.3%
same,"viability, T/C","second compound 0.000949 µM, first compound 10 µM",86.1%
same,"viability, T/C","second compound 0.003 µM, first compound 0.0316 µM",96.1%
same,"viability, T/C","second compound 0.003 µM, first compound 0.1 µM",92.2%
same,"viability, T/C","second compound 0.003 µM, first compound 0.316 µM",105%
same,"viability, T/C","second compound 0.003 µM, first compound 1 µM",96.4%
same,"viability, T/C","second compound 0.003 µM, first compound 3.16 µM",92.2%
same,"viability, T/C","second compound 0.003 µM, first compound 10 µM",85.5%
same,"viability, T/C","second compound 0.00949 µM, first compound 0.0316 µM",96%
same,"viability, T/C","second compound 0.00949 µM, first compound 0.1 µM",110%
same,"viability, T/C","second compound 0.00949 µM, first compound 0.316 µM",112%
same,"viability, T/C","second compound 0.00949 µM, first compound 1 µM",103%
same,"viability, T/C","second compound 0.00949 µM, first compound 3.16 µM",96.9%
same,"viability, T/C","second compound 0.00949 µM, first compound 10 µM",77.7%
same,"viability, T/C","second compound 0.03 µM, first compound 0.0316 µM",109%
same,"viability, T/C","second compound 0.03 µM, first compound 0.1 µM",107%
same,"viability, T/C","second compound 0.03 µM, first compound 0.316 µM",106%
same,"viability, T/C","second compound 0.03 µM, first compound 1 µM",97.6%
same,"viability, T/C","second compound 0.03 µM, first compound 3.16 µM",99.5%
same,"viability, T/C","second compound 0.03 µM, first compound 10 µM",74.8%
same,"viability, T/C","second compound 0.0949 µM, first compound 0.0316 µM",115%
same,"viability, T/C","second compound 0.0949 µM, first compound 0.1 µM",116%
same,"viability, T/C","second compound 0.0949 µM, first compound 0.316 µM",110%
same,"viability, T/C","second compound 0.0949 µM, first compound 1 µM",107%
same,"viability, T/C","second compound 0.0949 µM, first compound 3.16 µM",107%
same,"viability, T/C","second compound 0.0949 µM, first compound 10 µM",84.7%
same,"viability, T/C","second compound 0.3 µM, first compound 0.0316 µM",90.7%
same,"viability, T/C","second compound 0.3 µM, first compound 0.1 µM",105%
same,"viability, T/C","second compound 0.3 µM, first compound 0.316 µM",99.2%
same,"viability, T/C","second compound 0.3 µM, first compound 1 µM",111%
same,"viability, T/C","second compound 0.3 µM, first compound 3.16 µM",104%
same,"viability, T/C","second compound 0.3 µM, first compound 10 µM",76.9%
